Experimental data: PubChem BioAssay (NCI)
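A five-concentration, 48-hour dose response in 96-well plates underlies each endpoint, interpolated linearly between surrounding concentrations. At the TGI there is no net growth.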

Assays:
Experiment in all cases: DTP human tumour cell line panel, 48 h
[1] = test system: EKVX NSCLC
[2] = test system: OVCAR-3 ovarian
[3] = test system: SW-620 colon
[4] = test system: 786-0 renal
[5] = test system: MALME-3M melanoma
[6] = test system: UACC-62 melanoma
[7] = test system: OVCAR-8 ovarian
[8] = test system: HOP-62 NSCLC
[9] = test system: M14 melanoma
[10] = test system: NCI-H460 lung
[11] = test system: NCI-H23 lung
[12] = test system: RPMI-8226 leukemia

SMILES | TGI [1] | TGI [2] | TGI [3] | TGI [4] | TGI [5] | TGI [6] | TGI [7] | TGI [8] | TGI [9] | TGI [10] | TGI [11] | TGI [12]
C[C@]12CCC(=O)O[C@H]1CCCCO2 | > 100 µM | > 100 µM | > 100 µM | > 100 µM | > 100 µM | > 100 µM | > 100 µM | > 100 µM | > 100 µM | > 100 µM | – | –
CCOC(=O)c1nc2ccc(C(F)(F)F)cc2nc1NCc1cc(OC)c(OC)c(OC)c1 | > 100 µM | > 100 µM | > 100 µM | > 100 µM | – | > 100 µM | > 100 µM | > 100 µM | > 100 µM | – | > 100 µM | 48 µM
Cc1ccc(SCC(CF)OC(C)n2cnc3c(=O)[nH]c(N)nc32)cc1 (stereo not given) | – | > 100 µM | > 100 µM | > 100 µM | > 100 µM | > 100 µM | > 100 µM | > 100 µM | > 100 µM | > 100 µM | > 100 µM | > 100 µM
C=CCCN1CCc2c([nH]c3ccccc23)C1C(=O)O (stereo not given) | > 100 µM | > 100 µM | > 100 µM | – | > 100 µM | > 100 µM | – | > 100 µM | > 100 µM | > 100 µM | > 100 µM | –
C(=Nc1ccc(-c2nc3ccccc3[nH]2)cc1)c1cccs1 | > 100 µM | > 100 µM | > 100 µM | > 100 µM | > 100 µM | – | > 100 µM | > 100 µM | > 100 µM | > 100 µM | > 100 µM | > 100 µM
O=Cc1ccc2c(c1)CC1(Cc3ccccc3C1)C2 | > 100 µM | 28.3 µM | – | 29.9 µM | 36.3 µM | 41.4 µM | 39 µM | 34.2 µM | 26.8 µM | – | 50 µM | 53.4 µM
NN/C(=N\S(=O)(=O)c1cc2ccccc2s1)Nc1ccc(Cl)cc1 | 42.2 µM | 34.5 µM | 54.9 µM | 35.4 µM | – | 35.5 µM | 47.9 µM | 38.2 µM | 37.9 µM | 39.6 µM | 41.4 µM | 35.6 µM
CCOC(=O)N/N=C(/N)c1cccc([N+](=O)[O-])c1 | > 100 µM | > 100 µM | > 100 µM | > 100 µM | > 100 µM | > 100 µM | > 100 µM | > 100 µM | > 100 µM | > 100 µM | > 100 µM | –
O=C1/C(=N/O)Cc2c(Br)ccc(Br)c21 | > 100 µM | 70.3 µM | > 100 µM | > 100 µM | – | – | > 100 µM | > 100 µM | > 100 µM | > 100 µM | > 100 µM | > 100 µM
O=C1/C(=C/c2ccc([N+](=O)[O-])cc2)C(=O)N(c2ccccc2)C1c1ccccc1 (stereo not given) | > 10 µM | > 10 µM | > 10 µM | > 10 µM | – | > 10 µM | > 10 µM | > 10 µM | > 10 µM | > 10 µM | > 10 µM | > 10 µM
O=C1CSC(c2cccc(Oc3ccccc3)c2)N1c1ccc(Cl)cc1 (stereo not given) | 78.7 µM | > 100 µM | > 100 µM | > 100 µM | 56.7 µM | 34.2 µM | > 100 µM | > 100 µM | > 100 µM | 41.1 µM | > 100 µM | –
COc1ccccc1/C=C1\SC(=S)N(/C=C2\C(=O)Oc3ccccc3C2=O)C1=O | 60.2 µM | 44.6 µM | > 100 µM | > 100 µM | 64 µM | 64 µM | > 100 µM | – | > 100 µM | – | 10.1 µM | –
Cc1ccc(N=Nc2c(O)ccc3cc(S(=O)(=O)O)cc(S(=O)(=O)O)c23)cc1 | > 100 µM | > 100 µM | > 100 µM | > 100 µM | > 100 µM | > 100 µM | > 100 µM | > 100 µM | > 100 µM | > 100 µM | > 100 µM | –
CC(=O)OCC12C(=O)C[C@@H](C)C3(CC(c4ccoc4)OC3=O)C1CCC(OC(C)=O)C21CO1 (stereo not given in full) | – | > 100 µM | > 100 µM | > 100 µM | > 100 µM | > 100 µM | > 100 µM | > 100 µM | > 100 µM | > 100 µM | > 100 µM | > 100 µM
CCOC(=O)CNc1c(OCc2ccccc2)c(=O)c1=O | > 100 µM | > 100 µM | > 100 µM | > 100 µM | > 100 µM | > 100 µM | > 100 µM | > 100 µM | > 100 µM | – | > 100 µM | > 100 µM
Oc1c(CN2CCOCC2)ccc2cccnc12 | > 10 µM | > 10 µM | > 10 µM | > 10 µM | > 10 µM | – | > 10 µM | > 10 µM | > 10 µM | > 10 µM | > 10 µM | > 10 µM
Cc1ccc2c(c1)C(C(=O)N[C@@H]1C(=O)N3[C@@H]1SC(C)(C)[C@@H]3C(=O)O)OCCC2 (stereo not given in full) | > 100 µM | > 100 µM | > 100 µM | > 100 µM | – | > 100 µM | > 100 µM | > 100 µM | > 100 µM | > 100 µM | > 100 µM | > 100 µM
Cc1cccc(N=NC(=O)NNc2cccc(C)c2C)c1C | – | > 100 µM | > 100 µM | 86 µM | 73.3 µM | > 100 µM | > 100 µM | 86.7 µM | > 100 µM | > 100 µM | > 100 µM | 74.8 µM
N#CC(NC12CC3CC(CC(C3)C1)C2)c1ccccc1C(F)(F)F (stereo not given) | > 100 µM | > 100 µM | > 100 µM | – | > 100 µM | – | > 100 µM | > 100 µM | > 100 µM | > 100 µM | > 100 µM | > 100 µM
CC1NC(=O)CC(c2ccccc2)N(N=O)C1c1ccccc1 (stereo not given) | > 100 µM | > 100 µM | > 31.6 µM | – | > 100 µM | > 100 µM | > 82.7 µM | > 92.7 µM | – | > 90.2 µM | > 100 µM | 90.8 µM
